Measurements taken from patent US12187684B2, “Benzimidazole derivatives as modulators of retinoid-related orphan receptor gamma (RORγ) and pharmaceutical use thereof” (Jiangsu Hengrui Medicine Co., Ltd., priority 2018, dated 2025).

Target: T1, RORγ LBD-GST tagged (Homo sapiens, UniProt P51449)
T1 construct: RORγ LBD-GST tagged (Cat No. RORC-114H, Creative Biomart); purchased Creative Biomart RORC-114H
T1 sequence (P51449 269-508 limits assumed): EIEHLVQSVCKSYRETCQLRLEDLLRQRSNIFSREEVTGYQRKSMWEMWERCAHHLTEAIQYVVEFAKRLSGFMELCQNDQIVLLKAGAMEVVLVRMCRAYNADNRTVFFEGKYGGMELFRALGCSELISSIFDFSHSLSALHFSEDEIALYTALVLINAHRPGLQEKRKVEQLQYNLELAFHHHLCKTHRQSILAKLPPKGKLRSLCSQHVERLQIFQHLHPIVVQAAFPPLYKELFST
Assay: LanthaScreen TR-FRET RORγ coactivator assay
Assay type: biochemical
Settings: Fluorescein-D22 coactivator peptide, 1 hour room temperature
Excerpt: LanthaScreen TR-FRET Retinoid-Related Orphan Receptor Gamma (RORγ) Coactivator Assay Materials and Reagents • 1. […] Fluorescein-D22 coactivator peptide (Cat No. PV4386, Invitrogen) • 3. LanthaScreen™ Tb anti-GST antibody (Cat No. PV3550, Invitrogen) • 4. TR-FRET coregulatory buffer D (Cat No, PV4420, Invitrogen) • 5. DTT (Cat No. P2325, Fisher) • 6. […] Tecan Infinite M1000 plate reader (Tecan) Experimental Procedure Prepare Complete TR-FRET Coregulator Buffer D by adding 1 M DTT to TR-FRET Coregulator Buffer D to the final concentration of 5 mM DTT. Make compound dilution in Complete TR-FRET Coregulator Buffer D. Highest dose is 3 μM, 7-folder dilution for total 7 doses. Add 10 μL to each well of a 384-well plate. For the negative and positive controls, add 10 μL of Complete TR-FRET Coregulator Buffer D. Prepare RORγ LBD using Complete TR-FRET Coregulator Buffer D. The final concentration of RORγ LBD is 25 ng/reaction. Add 5 μL RORγ LBD to all the wells of the 384-well assay plate except negative wells which adding 5 μL Complete TR-FRET Coregulator Buffer D. Prepare a solution containing 0.6 μM Fluorescein-D22 and 8 nM Tb anti-GST antibody using Complete TR-FRET Coregulator Buffer D. Add 5 μL to all wells of the 384-well assay plate. Briefly and gently mix the 384-well plate on a plate shaker and incubate at room temperature protected from light for 1 hour. The plate may be sealed with a cover to minimize evaporation. Read the plate at wavelengths of 520 nm and 495 nm on Tecan Infinite M1000. IC50 values were calculated using GraphPad Prism by plotting the logarithm of compounds concentration versus percent inhibition.

SMILES	IC50
CCS(=O)(=O)c1ccc(C(CCO)c2nc3c(Cl)c(N4CCC(F)(F)CC4)c(Cl)cc3[nH]2)cc1 (single isomer, unassigned) [3-(4,6-dichloro-5-(4,4-difluoropiperidin-1-yl)-1H-benzo[d]imidazol-2-yl)-3-(4-(ethylsulfonyl)phenyl)propan-1-ol]	0.093 µM
CCS(=O)(=O)c1ccc(C(CC(N)=O)c2nc3c(Cl)c(N4CCC(F)(F)CC4)c(Cl)cc3[nH]2)cc1 (single isomer, unassigned) [3-(4,6-dichloro-5-(4,4-difluoropiperidin-1-yl)-1H-benzo[d]imidazol-2-yl)-3-(4-(ethylsulfonyl)phenyl)propanamide]	0.057 µM
NC(=O)CC(c1ccc(S(=O)(=O)CC2CC2)cc1)c1nc2cc(Cl)c(N3CCC(F)(F)CC3)c(Cl)c2[nH]1 (single isomer, unassigned) [3-(4-((cyclopropylmethyl)sulfonyl)phenyl)-3-(5,7-dichloro-6-(4,4-difluoropiperidin-1-yl)-1H-benzo[d]imidazol-2-yl)propanamide]	0.014 µM
O=S(=O)(CC1CC1)c1ccc(C(CCO)c2nc3cc(-c4ccccc4OC(F)F)c(Cl)cc3[nH]2)cc1 (single isomer, unassigned) [3-(6-chloro-5-(2-(difluoromethoxy)phenyl)-1H-benzo[d]imidazol-2-yl)-3-(4-((cyclopropylmethyl)sulfonyl)phenyl)propan-1-ol]	0.081 µM
NC(=O)CC(c1ccc(S(=O)(=O)CC2CC2)cc1)c1nc2cc(-c3ccccc3OC(F)F)c(Cl)cc2[nH]1 (single isomer, unassigned) [3-(6-chloro-5-(2-(difluoromethoxy)phenyl)-1H-benzo[d]imidazol-2-yl)-3-(4-((cyclopropylmethyl)sulfonyl)phenyl)propanamide]	0.21 µM
CC(C)Oc1ccccc1-c1cc2nc(C(CCO)c3ccc(S(=O)(=O)CC4CC4)cc3)[nH]c2cc1Cl (single isomer, unassigned) [3-(6-chloro-5-(2-isopropoxyphenyl)-1H-benzo[d]imidazol-2-yl)-3-(4-((cyclopropylmethyl)sulfonyl)phenyl)propan-1-ol]	0.787 µM
CC(C)Oc1ccccc1-c1cc2nc(C(CC(N)=O)c3ccc(S(=O)(=O)CC4CC4)cc3)[nH]c2cc1Cl (single isomer, unassigned) [3-(6-chloro-5-(2-isopropoxyphenyl)-1H-benzo[d]imidazol-2-yl)-3-(4-((cyclopropylmethyl)sulfonyl)phenyl)propanamide]	1.41 µM
CCS(=O)(=O)c1ccc(C(O)c2nc3c(Cl)c(-c4ccccc4)c(Cl)cc3[nH]2)cc1 (stereo not drawn) [Example 2, (4,6-dichloro-5-phenyl-1H-benzo[d]imidazol-2-yl)(4-(ethylsulfonyl)phenyl)methanol]	0.467 µM
CCS(=O)(=O)c1ccc(Cc2nc3c(Cl)c(-c4ccccc4OC(C)C)c(Cl)cc3[nH]2)cc1 [Example 8, 4,6-dichloro-2-(4-(ethylsulfonyl)benzyl)-5-(2-isopropoxyphenyl)-1H-benzo[d]imidazole]	0.903 µM
CCS(=O)(=O)c1ccc(C(O)c2nc3c(Cl)c(-c4ccccc4OC(C)C)c(Cl)cc3[nH]2)cc1 (stereo not drawn) [Example 10, (4,6-dichloro-5-(2-isopropoxyphenyl)-1H-benzo[d]imidazol-2-yl)(4-(ethylsulfonyl)phenyl)methanol]	0.056 µM
CCS(=O)(=O)c1ccc(C(CO)c2nc3c(Cl)c(-c4ccccc4F)c(Cl)cc3[nH]2)cc1 (stereo not drawn) [Example 11, 2-(4,6-dichloro-5-(2-fluorophenyl)-1H-benzo[d]imidazol-2-yl)-2-(4-(ethylsulfonyl)phenyl)ethanol]	0.242 µM
CCS(=O)(=O)c1ccc(C(O)c2nc3c(Cl)c(-c4ccccc4F)c(Cl)cc3[nH]2)cc1 (stereo not drawn) [Example 12, (4,6-dichloro-5-(2-fluorophenyl)-1H-benzo[d]imidazol-2-yl)(4-(ethylsulfonyl)phenyl)methanol]	0.106 µM
CCS(=O)(=O)c1ccc(C(O)c2nc3c(Cl)c(-c4cc(Cl)ccc4Cl)c(Cl)cc3[nH]2)cc1 (stereo not drawn) [Example 15, (4,6-dichloro-5-(2,5-dichlorophenyl)-1H-benzo[d]imidazol-2-yl)(4-(ethylsulfonyl)phenyl)methanol]	0.787 µM
CCOc1ccccc1-c1c(Cl)cc2[nH]c(Cc3ccc(S(=O)(=O)CC)cc3)nc2c1Cl [Example 16, 4,6-dichloro-5-(2-ethoxyphenyl)-2-(4-(ethylsulfonyl)benzyl)-1H-benzo[d]imidazole]	0.626 µM
CCOc1ccccc1-c1c(Cl)cc2[nH]c(C(CO)c3ccc(S(=O)(=O)CC)cc3)nc2c1Cl (stereo not drawn) [Example 17, 2-(4,6-dichloro-5-(2-ethoxyphenyl)-1H-benzo[d]imidazol-2-yl)-2-(4-(ethylsulfonyl)phenyl)ethanol]	0.097 µM
CCOc1ccccc1-c1c(Cl)cc2[nH]c(C(O)c3ccc(S(=O)(=O)CC)cc3)nc2c1Cl (stereo not drawn) [Example 18, (4,6-dichloro-5-(2-ethoxyphenyl)-1H-benzo[d]imidazol-2-yl)(4-(ethylsulfonyl)phenyl)methanol]	0.013 µM
CCS(=O)(=O)c1ccc(C(CO)c2nc3c(Cl)c(-c4ccccc4C#N)c(Cl)cc3[nH]2)cc1 (stereo not drawn) [Example 22, 2-(4,6-dichloro-2-(1-(4-(ethylsulfonyl)phenyl)-2-hydroxyethyl)-1H-benzo[d]imidazol-5-yl)benzonitrile]	0.219 µM
CCS(=O)(=O)c1ccc(Cc2nc3c(Cl)c(-c4ccsc4)c(Cl)cc3[nH]2)cc1 [Example 24, 4,6-dichloro-2-(4-(ethylsulfonyl)benzyl)-5-(thiophen-3-yl)-1H-benzo[d]imidazole]	0.701 µM
CCS(=O)(=O)c1ccc(C(CO)c2nc3c(Cl)c(-c4ccsc4)c(Cl)cc3[nH]2)cc1 (stereo not drawn) [Example 25, 2-(4,6-dichloro-5-(thiophen-3-yl)-1H-benzo[d]imidazol-2-yl)-2-(4-(ethylsulfonyl)phenyl)ethanol]	0.789 µM
CCS(=O)(=O)c1ccc(C(O)c2nc3c(Cl)c(-c4ccsc4)c(Cl)cc3[nH]2)cc1 (stereo not drawn) [Example 26, (4,6-dichloro-5-(thiophen-3-yl)-1H-benzo[d]imidazol-2-yl)(4-(ethylsulfonyl)phenyl)methanol]	0.465 µM
CCS(=O)(=O)c1ccc(Cc2nc3c(Cl)c(-c4ccccc4N(C)C)c(Cl)cc3[nH]2)cc1 [Example 27, 2-(4,6-dichloro-2-(4-(ethylsulfonyl)benzyl)-1H-benzo[d]imidazol-5-yl)-N,N-dimethylaniline]	0.489 µM
CCS(=O)(=O)c1ccc(Cc2nc3c(Cl)c(-c4ccccc4OC(F)F)c(Cl)cc3[nH]2)cc1 [Example 28, 4,6-dichloro-5-(2-(difluoromethoxy)phenyl)-2-(4-(ethylsulfonyl)benzyl)-1H-benzo[d]imidazole]	0.045 µM
CCS(=O)(=O)c1ccc(Cc2nc3c(Cl)c(-c4ccccc4C(C)C)c(Cl)cc3[nH]2)cc1 [Example 36, 4,6-dichloro-2-(4-(ethylsulfonyl)benzyl)-5-(2-isopropylphenyl)-1H-benzol[d]imidazole]	0.348 µM
CCS(=O)(=O)c1ccc(C(CO)c2nc3c(Cl)c(-c4ccccc4C(C)C)c(Cl)cc3[nH]2)cc1 (stereo not drawn) [Example 37, 2-(4,6-dichloro-5-(2-isopropylphenyl)-1H-benzo[d]imidazol-2-yl)-2-(4-(ethylsulfonyl)phenyl)ethanol]	0.433 µM
